pKi: −log10 of the molar value. Several values for one entry are separate records, joined by “and”; a condition that tells them apart may be missing. Equal values may be shown once.
Target: T1, HCV NS3-NS4A protease (Hepatitis C virus genotype 1a, UniProt P27958)
T1 construct: The buffer, KK4A, DTT, and tNS3 were combined
Experiment: HCV Ki Assay (enzyme, Example 5)
Type: biochemical
Details: Ki values, tested according to Example 5 (enzyme); 5AB substrate, tNS3 with KK4A
Description: HPLC Microbore Method for Separation of 5AB Substrate and Products
NH2-Glu-Asp-Val-Val-(alpha)Abu-Cys-Ser-Met-Ser-Tyr-COOH
A stock solution of 20 mM 5AB (or concentration of your choice) was made in DMSO w/0.2M DTT. This was stored in aliquots at −20 C.
Buffer: 50 mM HEPES, pH 7.8; 20% glycerol; 100 mM NaCl
Total assay volume was 100 μL
The buffer, KK4A, DTT, and tNS3 were combined; distributed 78 μL each into wells of 96 well plate. This was incubated at 30 C for ˜5-10 min.
2.5 μL of appropriate concentration of test compound was dissolved in DMSO (DMSO only for control) and added to each well. This was incubated at room temperature for 15 min.
Initiated reaction by addition of 20 μL of 250 μM 5AB substrate (25 μM concentration is equivalent or slightly lower than the Km for 5AB).
Incubated for 20 min at 30 C.
Terminated reaction by addition of 25 μL of 10% TFA
Transferred 120 μL aliquots to HPLC vials
Separated SMSY product from substrate and KK4A by the following method:
Microbore Separation Method:
Instrumentation: Agilent 1100
Column thermostated chamber G1316A
Diode array detector G1315A
Solvent A=HPLC grade water+0.1% TFA
Solvent B=HPLC grade acetonitrile+0.1% TFA
Stop time: 17 min Post-run time: 10 min.

T1 sequence (P27958 1658-1711): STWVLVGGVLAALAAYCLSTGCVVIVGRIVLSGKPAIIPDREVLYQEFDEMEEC
T1 sequence (P27958 1027-1208): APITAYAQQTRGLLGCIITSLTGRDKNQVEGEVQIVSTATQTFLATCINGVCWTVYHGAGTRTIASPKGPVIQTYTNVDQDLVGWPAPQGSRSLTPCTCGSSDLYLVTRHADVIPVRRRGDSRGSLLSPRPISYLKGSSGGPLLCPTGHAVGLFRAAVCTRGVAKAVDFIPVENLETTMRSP

| Structure (SMILES) | pKi |
| --- | --- |
| CCC[C@H](NC(=O)[C@@H]1C[C@@H](Oc2cccc(OC)c2)CN1C(=O)[C@@H](NC(=O)[C@@H](NC(=O)c1cnccn1)C1CCCCC1)C(C)(C)C)C(=O)C(=O)NC1CC1 [Compound 21] | < 6.52 |
| CCC[C@H](NC(=O)[C@@H]1C[C@@H](Oc2cccc(OC)c2OC)CN1C(=O)[C@@H](NC(=O)[C@@H](NC(=O)c1cnccn1)C1CCCCC1)C(C)(C)C)C(=O)C(=O)NC1CC1 [Compound 23] | 6.52 to 7.00 |
| CCC[C@H](NC(=O)[C@@H]1C[C@@H](Oc2cccc(Cl)n2)CN1C(=O)[C@@H](NC(=O)[C@@H](NC(=O)c1cnccn1)C1CCCCC1)C(C)(C)C)C(=O)C(=O)NC1CC1 [Compound 25] | 6.52 to 7.00 |
| CCCC(NC(=O)[C@H]1C[C@H](Oc2ccc(C(F)(F)F)cn2)CN1C(=O)C(NC(=O)C(NC(=O)c1cnccn1)C1CCCCC1)C(C)(C)C)C(=O)C(=O)NC1CC1 (stereo partly shown) [Compound 27] | < 6.52 |
| CCCC(NC(=O)[C@H]1C[C@H](Oc2ccc(-c3ccccc3)nn2)CN1C(=O)C(NC(=O)C(NC(=O)c1cnccn1)C1CCCCC1)C(C)(C)C)C(=O)C(=O)NC1CC1 (stereo partly shown) [Compound 28] | < 6.52 |
| CCCC(NC(=O)[C@H]1C[C@H](Oc2ccnc(C(F)(F)F)n2)CN1C(=O)C(NC(=O)C(NC(=O)c1cnccn1)C1CCCCC1)C(C)(C)C)C(=O)C(=O)NC1CC1 (stereo partly shown) [Compound 29] | < 6.52 |
| CCCC(NC(=O)[C@H]1C[C@H](Oc2cc(C(F)(F)F)ncn2)CN1C(=O)C(NC(=O)C(NC(=O)c1cnccn1)C1CCCCC1)C(C)(C)C)C(=O)C(=O)NC1CC1 (stereo partly shown) [Compound 30] | 6.52 to 7.00 |
| CCCC(NC(=O)[C@H]1C[C@H](Oc2nccc(-c3ccccc3)c2C#N)CN1C(=O)C(NC(=O)C(NC(=O)c1cnccn1)C1CCCCC1)C(C)(C)C)C(=O)C(=O)NC1CC1 (stereo partly shown) [Compound 31] | 6.52 to 7.00 |
| CCCC(NC(=O)[C@H]1C[C@H](Oc2ncncc2F)CN1C(=O)C(NC(=O)C(NC(=O)c1cnccn1)C1CCCCC1)C(C)(C)C)C(=O)C(=O)NC1CC1 (stereo partly shown) [Compound 32] | > 7.00 |
| CCCC(NC(=O)[C@H]1C[C@H](Oc2ncccc2[N+](=O)[O-])CN1C(=O)C(NC(=O)C(NC(=O)c1cnccn1)C1CCCCC1)C(C)(C)C)C(=O)C(=O)NC1CC1 (stereo partly shown) [Compound 33] | 6.52 to 7.00 |
| CCC[C@H](NC(=O)[C@@H]1C[C@@H](Oc2cccc3ccccc23)CN1C(=O)[C@@H](NC(=O)[C@@H](NC(=O)c1ncc[nH]1)C1CCCCC1)C(C)(C)C)C(=O)C(=O)NC1CC1 [Compound 37] | > 7.00 |
| CCC[C@H](NC(=O)[C@@H]1C[C@@H](Oc2ccc(C(=O)OC)cc2)CN1C(=O)[C@@H](NC(=O)[C@@H](NC(=O)c1cnccn1)C1CCCCC1)C(C)(C)C)C(=O)C(=O)NC1CC1 [Compound 52] | > 7.00 |
| CCC[C@H](NC(=O)[C@@H]1C[C@@H](Oc2ccc(Cl)cn2)CN1C(=O)[C@@H](NC(=O)[C@@H](NC(=O)[C@H](C)NC(=O)OC)C1CCCCC1)C(C)(C)C)C(=O)C(=O)NC1CC1 [Compound 69] | > 7.00 |
| CCCC(NC(=O)[C@H]1C[C@H](Oc2nccc(C(F)(F)F)n2)CN1C(=O)C(NC(=O)C(NC(=O)c1cnccn1)C1CCCCC1)C(C)(C)C)C(=O)C(=O)NC1CC1 (stereo partly shown) [Compound 74] | < 6.52 |
| CCC[C@H](NC(=O)[C@@H]1C[C@@H](Oc2ccc(Cl)cn2)CN1C(=O)[C@@H](NC(=O)[C@@H](NC(=O)c1cnccn1)C1CCCCC1)C(C)(C)C)C(=O)C(=O)CC(C)C [Compound 75] | < 6.52 |
| C=CCCC(=O)C(=O)[C@H](CCC)NC(=O)[C@@H]1C[C@@H](Oc2ccc(Cl)cn2)CN1C(=O)[C@@H](NC(=O)[C@@H](NC(=O)c1cnccn1)C1CCCCC1)C(C)(C)C [Compound 76] | 6.52 to 7.00 and < 6.52 |
